# Source: patent publication US6492174B1, “Methods of initiating embryogenic cultures in plants” (Institute of Paper Science & Technology, priority 2000, dated 2002)
# Legend:
# [1] = tested on: Loblolly pine megagametophytes; experiment: Loblolly pine extrusion and initiation immersed in liquid media #1071 with brassinolide, eight weeks; type: cell-based
# Procedure: In Examples 4 and 5, the effect of varying brassinolide concentration in a solid media was measured. This experiment was conducted to determine the optimal concentration of brassinolide in a liquid media. The explants in this experiment were megagametophytes isolated from the cones of four open-pollinated trees representing a multiplicity of genotypes. The seeds contained Stage 2-4 zygotic embryos. Seeds were sterilized as described in Example 1. Seed coats were split and the megagametophytes were isolated by removing integuments and nucellus. Isolated megagametophytes were wholly immersed in liquid media #1071 (Table 47) containing varying concentrations of brassinolide. The five treatments consisted of media containing zero, 0.05, 0.1, 0.15 and 0.2 μM brassinolide (Table 16). Two ml of each media was poured into wells on culture well plates. […]. The experiment consisted of four replications per treatment, per cone collection.
# Nevertheless, overall extrusion frequency was increased in the brassinolide treatments as compared to the control (Table 17). Initiation frequency was increased by the addition of brassinolide from 0.05 to 0.2 μM (Table 18). […] Nevertheless, one of skill in the art could empirically determine the upper and lower effective concentration of brassinolide which is effective in promoting initiation in a liquid media.
# [2] = tested on: cultured cells of Onosma paniculatum; conditions: media containing 0.01 ppb brassinolide; cited from earlier work
# [3] = tested on: Norway spruce zygotic embryos; experiment: Norway spruce initiation after ABA pre-treatment of seed or explant, ten weeks; type: cell-based
# Procedure: In this Example, various ABA pre-treatment methods are compared.
# Explants were zygotic embryos flipped out of the megagametophyte, prepared as in Example 1. The experiment consisted of four replications, with a replication consisting of ten explants in a single petri dish. Explants were cultured on solid media lacking ABA.
# The treatments were designed to investigate the effects of pre-treating the whole seed compared to treating the explant (i.e. the embryo and megagametophyte) after their removal from the seed. It is presumed that soaking a whole seed will result in less ABA uptake by the megagametophyte and embryo than soaking them directly in ABA due to their being surrounded by seed tissue. Two treatments also compared the effect of the pH of the ABA solution. In Treatment #1, the control, seeds were soaked in water for 24 hours, and then explants were prepared as in Example 1. In Treatment #2, seeds were soaked in 5 ppm ABA for 24 hours prior to explant removal. In Treatment #3, seeds were soaked in 20 ppm ABA for 24 hours prior to explant removal. In Treatment #4, seeds were soaked in water for 24 hours and then the explants were removed and soaked in a 5 ppm ABA solution of pH 4.5 for 30 minutes. In Treatment #5 seeds were soaked in water for 24 hours and then the explants were removed and soaked in a 5 ppm ABA solution of pH 5.5 for 30 minutes. After ten weeks, the explants were examined and the frequency of embryogenic culture initiation was scored (Table 44).
# [4] = tested on: Pinus embryogenic cultures; conditions: solid initiation media containing 30-90 mg/l ABA; cited from earlier work
structure (smiles),measurement,setting,value
CC(C)[C@H](C)[C@@H](O)[C@H](O)[C@@H](C)[C@H]1CC[C@H]2[C@@H]3COC(=O)[C@H]4C[C@H](O)[C@H](O)C[C@]4(C)[C@H]3CC[C@]12C [brassinolide],Initiation frequency vs control,"[1]; brassinolide from 0.05 to 0.2 μM, liquid media",increased
same,% of Megagametophytes Extruding,"[1]; genotype FN, 0.05 μM Br",32.5 (12.5) %
same,% of Megagametophytes Initiating,"[1]; genotype FN, 0.05 μM Br",20.0 (10.8) %
same,% of Megagametophytes Extruding,"[1]; genotype FN, 0.10 μM Br",15.0 (6.5) %
same,% of Megagametophytes Initiating,"[1]; genotype FN, 0.10 μM Br",10.0 (4.1) %
same,% of Megagametophytes Extruding,"[1]; genotype FN, 0.15 μM Br",40.0 (20.4) %
same,% of Megagametophytes Initiating,"[1]; genotype FN, 0.15 μM Br",20.0 (12.2) %
same,% of Megagametophytes Extruding,"[1]; genotype FN, 0.2 μM Br",50.0 (18.3) %
same,% of Megagametophytes Initiating,"[1]; genotype FN, 0.2 μM Br",35.0 (15.0) %
same,% of Megagametophytes Extruding,"[1]; genotype FO, 0.05 μM Br",0.0 (0) %
same,% of Megagametophytes Initiating,"[1]; genotype FO, 0.05 μM Br",0 (0) %
same,% of Megagametophytes Extruding,"[1]; genotype FO, 0.10 μM Br",0.0 (0) %
same,% of Megagametophytes Initiating,"[1]; genotype FO, 0.10 μM Br",0 (0) %
same,% of Megagametophytes Extruding,"[1]; genotype FO, 0.15 μM Br",0.0 (0) %
same,% of Megagametophytes Initiating,"[1]; genotype FO, 0.15 μM Br",0 (0) %
same,% of Megagametophytes Extruding,"[1]; genotype FO, 0.2 μM Br",0.0 (0) %
same,% of Megagametophytes Initiating,"[1]; genotype FO, 0.2 μM Br",0 (0) %
same,% of Megagametophytes Extruding,"[1]; genotype FX, 0.05 μM Br",17.5 (6.3) %
same,% of Megagametophytes Initiating,"[1]; genotype FX, 0.05 μM Br",17.5 (6.3) %
same,% of Megagametophytes Extruding,"[1]; genotype FX, 0.10 μM Br",27.5 (12.5) %
same,% of Megagametophytes Initiating,"[1]; genotype FX, 0.10 μM Br",25.0 (10.4) %
same,% of Megagametophytes Extruding,"[1]; genotype FX, 0.15 μM Br",15.0 (5.0) %
same,% of Megagametophytes Initiating,"[1]; genotype FX, 0.15 μM Br",12.5 (4.8) %
same,% of Megagametophytes Extruding,"[1]; genotype FX, 0.2 μM Br",17.5 (4.8) %
same,% of Megagametophytes Initiating,"[1]; genotype FX, 0.2 μM Br",17.5 (4.8) %
same,% of Megagametophytes Extruding,"[1]; genotype FZ, 0.05 μM Br",0.0 (0) %
same,% of Megagametophytes Initiating,"[1]; genotype FZ, 0.05 μM Br",0 (0) %
same,% of Megagametophytes Extruding,"[1]; genotype FZ, 0.10 μM Br",2.5 (2.5) %
same,% of Megagametophytes Initiating,"[1]; genotype FZ, 0.10 μM Br",2.5 (2.5) %
same,% of Megagametophytes Extruding,"[1]; genotype FZ, 0.15 μM Br",2.5 (2.5) %
same,% of Megagametophytes Initiating,"[1]; genotype FZ, 0.15 μM Br",2.5 (2.5) %
same,% of Megagametophytes Extruding,"[1]; genotype FZ, 0.2 μM Br",0.0 (0) %
same,% of Megagametophytes Initiating,"[1]; genotype FZ, 0.2 μM Br",0 (0) %
same,% of Megagametophytes Extruding,"[1]; total, 0.05 μM Br",12.5%
same,% of Megagametophytes Initiating,"[1]; total, 0.05 μM Br",9.4%
same,% of Megagametophytes Extruding,"[1]; total, 0.10 μM Br",11.3%
same,% of Megagametophytes Initiating,"[1]; total, 0.10 μM Br",9.4%
same,% of Megagametophytes Extruding,"[1]; total, 0.15 μM Br",14.4%
same,% of Megagametophytes Initiating,"[1]; total, 0.15 μM Br",8.8%
same,% of Megagametophytes Extruding,"[1]; total, 0.2 μM Br",16.9%
same,% of Megagametophytes Initiating,"[1]; total, 0.2 μM Br",13.1%
same,growth of cultured cells,[2],slightly increased growth
"CC1=CC(=O)CC(C)(C)C1(O)/C=C/C(C)=C\C(=O)O (centres unmarked) [ABA, 5-(1-hydroxy-2,6,6,-trimethyl-4-oxo-2-cyclohexen-1-yl)-3-methyl-2,4-penta dienoic acid]",% Initiating (std. error),"[3]; explant soaked in 5 ppm ABA (pH 4.5), 30 minutes",31.2 (12.2) %
same,% Initiating (std. error),"[3]; explant soaked in 5 ppm ABA (pH 5.5), 30 minutes",22.0 (3.0) %
same,% Initiating (std. error),"[3]; seed soaked in 5 ppm ABA, 24 hours",15.1 (6.6) %
same,% Initiating (std. error),"[3]; seed soaked in 20 ppm ABA, 24 hours",24.0 (5.4) %
same,initiation frequencies,[4],30-38%
